Laboratory results: BigSolDB 2.1

CC1Cc2ccccc2N1NC(=O)c1ccc(Cl)c(S(N)(=O)=O)c1 (stereo not given)
solubility (mole fraction)
Conditions | in 2-butanone | in acetone | in acetonitrile | in cyclohexane | in ethanol | in ethyl acetate | in isopropanol | in methanol | in n-propanol | in toluene
278.15 K | 0.0155 | 0.0204 | 0.00184 | 1.28e-06 | 0.00383 | 0.000455 | 0.0012 | 0.00524 | 0.00285 | 4.36e-06
283.15 K | 0.0175 | 0.0228 | 0.00278 | 2.34e-06 | 0.00514 | 0.000769 | 0.00187 | 0.00676 | 0.00398 | 6.4e-06
288.15 K | 0.0198 | 0.0257 | 0.00391 | 3.75e-06 | 0.00709 | 0.00115 | 0.00279 | 0.00877 | 0.00531 | 1.08e-05
293.15 K | 0.0225 | 0.0288 | 0.00536 | 5.88e-06 | 0.00913 | 0.00165 | 0.00386 | 0.0115 | 0.00685 | 1.68e-05
298.15 K | 0.0255 | 0.0322 | 0.00714 | 9.3e-06 | 0.0116 | 0.00235 | 0.00535 | 0.0147 | 0.00884 | 2.54e-05
303.15 K | 0.0291 | 0.036 | 0.00953 | 1.45e-05 | 0.0148 | 0.00336 | 0.00732 | 0.0187 | 0.0114 | 3.62e-05
308.15 K | 0.0329 | 0.0402 | 0.0124 | 2.23e-05 | 0.0186 | 0.00464 | 0.00979 | 0.023 | 0.0143 | 5.21e-05
313.15 K | 0.0371 | 0.0445 | 0.0158 | 3.36e-05 | 0.0227 | 0.00638 | 0.013 | 0.0276 | 0.0177 | 7.52e-05
318.15 K | 0.0417 | 0.0495 | 0.0199 | 5.02e-05 | 0.0275 | 0.00855 | 0.0168 | 0.033 | 0.0219 | 0.000106
